The results in this text go back to ChEMBL document CHEMBL1135919, “Synthesis of photoreactive phosphatidic acid analogues displaying activatory properties on cyclic AMP-phosphodiesterases. Photoaffinity labeling of an isoform of phosphodiesterase” (J Med Chem, 2002).

Structures are written as SMILES.

For the experiment, the target named is T1, 3',5'-cyclic-AMP phosphodiesterase 4D (Rattus norvegicus, UniProt P14270).
T1 sequence (P14270 whole entry): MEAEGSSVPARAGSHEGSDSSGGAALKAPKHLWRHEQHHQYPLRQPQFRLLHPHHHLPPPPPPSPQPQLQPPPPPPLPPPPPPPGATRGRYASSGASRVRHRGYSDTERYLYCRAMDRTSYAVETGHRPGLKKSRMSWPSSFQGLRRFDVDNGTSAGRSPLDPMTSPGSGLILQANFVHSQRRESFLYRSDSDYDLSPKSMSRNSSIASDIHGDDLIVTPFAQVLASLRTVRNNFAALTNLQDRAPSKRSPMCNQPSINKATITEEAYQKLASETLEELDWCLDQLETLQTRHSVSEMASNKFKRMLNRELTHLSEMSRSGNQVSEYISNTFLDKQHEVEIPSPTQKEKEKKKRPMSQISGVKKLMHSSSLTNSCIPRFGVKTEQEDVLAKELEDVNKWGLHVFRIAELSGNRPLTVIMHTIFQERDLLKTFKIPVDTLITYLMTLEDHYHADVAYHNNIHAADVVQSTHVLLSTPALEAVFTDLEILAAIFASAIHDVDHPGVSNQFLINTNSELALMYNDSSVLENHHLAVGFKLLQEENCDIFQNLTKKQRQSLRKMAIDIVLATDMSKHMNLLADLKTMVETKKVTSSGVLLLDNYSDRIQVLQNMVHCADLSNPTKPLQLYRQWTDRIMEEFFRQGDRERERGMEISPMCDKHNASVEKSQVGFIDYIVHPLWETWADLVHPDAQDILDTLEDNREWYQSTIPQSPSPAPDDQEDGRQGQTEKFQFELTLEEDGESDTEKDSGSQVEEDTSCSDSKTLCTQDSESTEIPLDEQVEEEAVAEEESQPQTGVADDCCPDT
Briefly: Activation of PDE4D3 (phosphodiesterase). Format: functional.
The term EC50 denotes the concentration needed to bring the measured effect to its halfway point. High values mean a less potent agent, low ones a more potent agent. For `CCCCCCCC/C=C/CCCCCCCC(=O)OCC(COP(=O)(O)O)OC(=O)CCCCCCCCCCCNC(=O)c1c(F)c(F)c(N=[N+]=[N-])c(F)c1F` (stereo not drawn), the half-maximal effective concentration (EC50) is 23.5 µM.
For `CCCCCCCCCCCCCCCC(=O)OCC(COP(=O)(O)O)OC(=O)CCCCCCCCCCCNC(=O)c1c(F)c(F)c(N=[N+]=[N-])c(F)c1F` (stereo not drawn) the value was 24.2 µM.
Turning to `CCCCCCCC/C=C/CCCCCCCC(=O)OC(COC(=O)CCCCCCCCCCCNC(=O)c1c(F)c(F)c(N=[N+]=[N-])c(F)c1F)COP(=O)(O)O` (stereo not drawn), the response was half-maximal at 23.5 µM (EC50).
